{
  "source": "patent US20190015421A1",
  "about": "“Biomarkers for Treating Cancer with Apilimod” (LAM Therapeutics, Inc., priority 2016, published 2019)",
  "key": {"[1]": {"test_system": "RCC-FG2", "assay": "apilimod 5 day assay in clear cell RCC line RCC-FG2", "format": "cell-based", "conditions": "120 h, VHL mutant, read-out: EC50 (nM) (avg, n = 2)"}, "[2]": {"test_system": "RCC-ER", "assay": "apilimod 5 day assay in clear cell RCC line RCC-ER", "format": "cell-based", "conditions": "120 h, VHL mutant, read-out: EC50 (nM) (avg, n = 2)", "source_text": "FIG. 7B: example dose response of renal cell line RCC-ER and normal colon cell line CCD841CoN to apilimod in a 5 day assay."}, "[3]": {"test_system": "A-704", "assay": "apilimod 5 day assay in clear cell RCC line A-704", "format": "cell-based", "conditions": "Homo sapiens, A704, 120 h, A-704 clear cell RCC line, VHL mutant, read-out: EC50 (nM) (avg, n = 2)"}, "[4]": {"test_system": "SU-DHL-10 and WSU-DLCL2 B-NHL lines", "assay": "global gene expression and gene ontology analysis", "format": "cell-based", "conditions": "SU-DHL-10 and WSU-DLCL2 after apilimod treatment", "source_text": "FIG. 1: heatmap representation of gene expression changes in SU-DHL-10 and WSU-DLCL2 B-NHL lines upon apilimod treatment.\n(§1) To further understand apilimod's cellular mechanism of action, we performed a global gene expression analysis of the changes occurring after apilimod treatment of two non-Hodgkins B cell lymphoma (B-NHL) tumor cell lines, SU-DHL-10 and WSU-DLCL2. […] We next performed a gene ontology analysis. […] We next used LysoTracker staining to examine the acidified compartment of the cells."}, "[5]": {"test_system": "Caki-1", "assay": "apilimod 5 day assay in clear cell RCC line Caki-1", "format": "cell-based", "conditions": "Homo sapiens, 120 h, Caki-1 clear cell RCC line, VHL WT, read-out: EC50 (nM) (avg, n = 2)"}, "[6]": {"test_system": "KMRC-1", "assay": "apilimod 5 day assay in clear cell RCC line KMRC-1", "format": "cell-based", "conditions": "120 h, KMRC-1 clear cell RCC line, VHL mutant, read-out: EC50 (nM) (avg, n = 2)"}, "[7]": {"test_system": "TFEB", "assay": "TFEB phosphorylation status and subcellular localization by immunoblotting", "format": "cell-based", "conditions": "SU-DHL-6 cells, apilimod 63 nM, 2 hr", "experimental": "FIG. 4: nuclear and cytoplasmic levels of TFEB protein assayed by immunoblotting in SU-DHL-6 cells treated with apilimod (63 nM) for 2 hr.\nTFEB is a master regulator of lysosomal gene expression and is activated by dephosphorylation followed by nuclear translocation (Roczniak-Ferguson et al., 2012; Settembre et al., 2012). Accordingly, we next looked at TFEB phosphorylation status and subcellular localization following apilimod treatment."}, "[8]": {"test_system": "TSC null cells", "conditions": "mTOR pathway constitutively active; previously shown; cited from earlier work"}, "[9]": {"conditions": "active Crohn's disease; Sands et al. 2010; cited from earlier work"}, "[10]": {"test_system": "ACHN", "assay": "apilimod 5 day assay in clear cell RCC line ACHN", "format": "cell-based", "conditions": "Homo sapiens, 120 h, VHL WT, read-out: EC50 (nM) (avg, n = 2)"}, "[11]": {"test_system": "RCC-JW", "assay": "apilimod 5 day assay in clear cell RCC line RCC-JW", "format": "cell-based", "conditions": "120 h, read-out: EC50 (nM) (avg, n = 2)"}, "[12]": {"test_system": "A498", "assay": "apilimod 5 day assay in clear cell RCC line A498", "format": "cell-based", "conditions": "Homo sapiens, 120 h, VHL mutant, read-out: EC50 (nM) (avg, n = 2)"}, "[13]": {"test_system": "769-P", "assay": "apilimod 5 day assay in clear cell RCC line 769-P", "format": "cell-based", "conditions": "Homo sapiens, 120 h, 769-P clear cell RCC line, VHL mutant, read-out: EC50 (nM) (avg, n = 2)"}, "[14]": {"test_system": "RCC having a VHL mutation", "assay": "apilimod cytotoxicity in RCC lines by VHL status", "format": "cell-based", "conditions": "clear cell RCC lines of Table 2, 5 day assay"}, "[15]": {"test_system": "Caki-2", "assay": "apilimod 5 day assay in clear cell RCC line Caki-2", "format": "cell-based", "conditions": "Homo sapiens, 120 h, Caki-2 clear cell RCC line, VHL mutant, read-out: EC50 (nM) (avg, n = 2)"}, "[16]": {"test_system": "RCC-JF", "assay": "apilimod 5 day assay in clear cell RCC line RCC-JF", "format": "cell-based", "conditions": "120 h, VHL mutant, read-out: EC50 (nM) (avg, n = 2)"}, "[17]": {"test_system": "KMRC-3", "assay": "apilimod 5 day assay in clear cell RCC line KMRC-3", "format": "cell-based", "conditions": "120 h, KMRC-3 clear cell RCC line, VHL mutant, read-out: EC50 (nM) (avg, n = 2)"}, "[18]": {"test_system": "RCC-MF", "assay": "apilimod 5 day assay in clear cell RCC line RCC-MF", "format": "cell-based", "conditions": "120 h, read-out: EC50 (nM) (avg, n = 2)"}, "[19]": {"test_system": "CA46 (TFEB-deficient B-NHL)", "assay": "apilimod dose response in CA46 pools over-expressing GFP control or TFEB", "format": "cell-based", "conditions": "CA46 pools over-expressing TFEB vs GFP control, 10-point dose response, 72 hrs", "experimental": "FIG. 6: stable CA46 (TFEB-deficient B-NHL) pools over-expressing either GFP control or TFEB were treated with 10-point apilimod dose response for 72 hrs.\nTo further explore the role of TFEB in the cellular response to apilimod, the expression levels of TFEB across different cancer cell lines from the Cancer Cell Line Encyclopedia (CCLE) database (Barretina et al., 2012) were extracted and examined to determine whether there was a correlation between TFEB expression and the sensitivity of the cell line to apilimod. […] To test whether the increased TFEB expression contributes to the apilimod sensitivity observed in B-NHL, we overexpressed TFEB in the TFEB-deficient B-NHL cell line CA46."}, "[20]": {"test_system": "786-0", "assay": "apilimod 5 day assay in clear cell RCC line 786-0", "format": "cell-based", "conditions": "Homo sapiens, 120 h, 786-0 clear cell RCC line, VHL mutant, read-out: EC50 (nM) (avg, n = 2)"}, "[21]": {"test_system": "SU-DHL-6 and SU-DHL-10", "assay": "LysoTracker staining of the acidified compartment", "format": "cell-based", "conditions": "200 nM apilimod, 24 and 48 hrs, compared to DMSO", "experimental": "FIG. 3: LysoTracker staining in SU-DHL-6 and SU-DHL-10 for 24 and 48 hrs after treatment with 200 nM (blue) apilimod compared to DMSO treated control (red).\nas §1"}, "[22]": {"test_system": "clear cell RCC cell lines (n=5)", "assay": "anti-proliferative activity versus standard of care drugs, 5 day assays", "format": "cell-based", "conditions": "versus axitinib, sorafenib, pazopanib, sunitinib and rapamycin", "source_text": "FIG. 8: anti-proliferative activity of apilimod versus standard of care drugs in clear cell RCC cell lines (n=5) in 5 day assays. *Values denote the geometric mean."}, "[23]": {"test_system": "synovial IL-12 and IL-23 expression", "conditions": "patients with rheumatoid arthritis; Krauz et al. 2012; cited from earlier work"}},
  "data": [
    {"smiles": "Cc1cccc(/C=N/Nc2cc(N3CCOCC3)nc(OCCc3ccccn3)n2)c1", "note": "[apilimod]", "values": [
      {"measurement": "EC50", "setting": "[1]", "value": 32, "unit": "nM"},
      {"measurement": "EC50", "setting": "[2]", "value": 9, "unit": "nM"},
      {"measurement": "EC50", "setting": "[3]", "value": 11, "unit": "nM"},
      {"measurement": "gene ontology of genes induced by apilimod", "setting": "[4]", "value": "clear enrichment of lysosomal genes"},
      {"measurement": "EC50", "setting": "[5]", "value": 2280, "unit": "nM"},
      {"measurement": "EC50", "setting": "[6]", "value": 4, "unit": "nM"},
      {"measurement": "TFEB dephosphorylation and nuclear translocation", "setting": "[7]", "value": "induces TFEB dephosphorylation and nuclear translocation"},
      {"measurement": "cytotoxicity in TSC null cells", "setting": "[8]", "value": "highly cytotoxic"},
      {"measurement": "efficacy over placebo", "setting": "[9]", "value": "did not demonstrate efficacy over placebo"},
      {"measurement": "tolerability", "setting": "[9]", "value": "well tolerated"},
      {"measurement": "EC50", "setting": "[10]", "value": 9040, "unit": "nM"},
      {"measurement": "EC50", "setting": "[11]", "value": 27, "unit": "nM"},
      {"measurement": "EC50", "setting": "[12]", "value": 84000, "unit": "nM"},
      {"measurement": "EC50", "setting": "[13]", "value": 44, "unit": "nM"},
      {"measurement": "cytotoxicity by VHL status", "setting": "[14]", "value": "preferentially cytotoxic in RCC having a VHL mutation"},
      {"measurement": "EC50", "setting": "[15]", "value": 3360, "unit": "nM"},
      {"measurement": "EC50", "setting": "[16]", "value": 60, "unit": "nM"},
      {"measurement": "EC50", "setting": "[17]", "value": 39, "unit": "nM"},
      {"measurement": "EC50", "setting": "[18]", "value": 8, "unit": "nM"},
      {"measurement": "enhancement of apilimod sensitivity by TFEB over-expression", "setting": "[19]", "value": "greater than 50 fold"},
      {"measurement": "EC50", "setting": "[20]", "value": 71, "unit": "nM"},
      {"measurement": "acidified compartment (LysoTracker staining)", "setting": "[21]", "value": "expansion of the acidified compartment"},
      {"measurement": "activity against clear cell RCCs relative to standard of care treatments", "setting": "[22]", "value": "superior activity"},
      {"measurement": "effect on synovial IL-12 and IL-23 expression", "setting": "[23]", "value": "failed to alter synovial IL-12 and IL-23 expression"}
    ]}
  ]
}
